Results as given in publication PMC9090415, “Discovery of small molecule inhibitors of Plasmodium falciparum apicoplast DNA polymerase” (Journal of Enzyme Inhibition and Medicinal Chemistry, 2022).
pIC50: −log10 of the molar value.

Biological target: P. falciparum apicoplast DNA polymerase (Pf-apPOL) (Plasmodium falciparum, UniProt Q8ILY1)
Test: Fluorescence-based high-throughput DNA polymerase assay (molecular beacon), primary screen and dose-response
Format: biochemical
Conditions: for DNA Pol: unit not given, 90 min, 10 µM; for pIC50: supplemental file 2, sheet IC50 nontoxic compounds, Pf-apPOL
In short: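 Single-point screening used 10 µM compound with 20 nM polymerase, 20 nM hairpin substrate and 6 µM dNTPs for 90 min at 25 °C. Confirmatory titrations (2.5–80 µM) followed fluorescence at three times, and IC50 was derived from a fit including a cooperativity term n.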

[1] = 'DNA Pol' of the 186 hits list (primary screen result)
[2] = primary screen value of the library well

Sequence of P. falciparum apicoplast DNA polymerase (Pf-apPOL) (Q8ILY1 entry or part of it): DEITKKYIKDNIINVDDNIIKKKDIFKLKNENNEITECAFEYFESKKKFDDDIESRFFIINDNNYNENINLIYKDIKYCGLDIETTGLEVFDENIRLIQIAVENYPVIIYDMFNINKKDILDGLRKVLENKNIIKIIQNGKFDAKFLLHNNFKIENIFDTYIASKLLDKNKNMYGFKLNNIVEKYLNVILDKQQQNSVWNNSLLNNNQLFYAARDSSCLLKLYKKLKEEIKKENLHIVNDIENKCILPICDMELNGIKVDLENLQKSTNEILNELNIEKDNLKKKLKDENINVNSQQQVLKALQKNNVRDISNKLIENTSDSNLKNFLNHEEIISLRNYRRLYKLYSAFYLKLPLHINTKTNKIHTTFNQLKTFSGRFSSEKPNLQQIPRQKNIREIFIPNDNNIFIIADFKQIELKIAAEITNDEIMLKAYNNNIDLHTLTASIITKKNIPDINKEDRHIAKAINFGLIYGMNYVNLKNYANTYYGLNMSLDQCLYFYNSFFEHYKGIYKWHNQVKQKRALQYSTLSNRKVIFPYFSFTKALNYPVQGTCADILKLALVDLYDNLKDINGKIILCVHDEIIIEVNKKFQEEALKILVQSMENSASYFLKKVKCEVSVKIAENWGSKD

SMILES: O=C(Nc1cccc(C(=O)Nc2ccc(S(=O)(=O)[O-])c3cc(S(=O)(=O)[O-])cc(S(=O)(=O)[O-])c23)c1)Nc1cccc(C(=O)Nc2ccc(S(=O)(=O)[O-])c3cc(S(=O)(=O)[O-])cc(S(=O)(=O)[O-])c23)c1.[Na+].[Na+].[Na+].[Na+].[Na+].[Na+] [Molecule 39, O=C(Nc1cccc(c1)C(=O)Nc1ccc(c2c1c(cc(c2)S(=O)(=O)[O-])S(=O)(=O)[O-])S(=O)(=O)[O-])Nc1cccc(c1)C(=O)Nc1ccc(c2c1c(cc(c2)S(=O)(=O)[O-])S(=O)(=O)[O-])S(=O)(=O)[O-].[Na+].[Na+].[Na+].[Na+].[Na+].[Na+]]
- DNA Pol [1]: 94
- % inhibition Apo pol 10' (DRC-1, concentration 2.5): 28.0363%
- % inhibition Apo pol 10' (DRC-1, concentration 5): 43.2303%
- % inhibition Apo pol 10' (DRC-1, concentration 10): 60.7681%
- % inhibition Apo pol 10' (DRC-1, concentration 20): 81.9365%
- % inhibition Apo pol 10' (DRC-1, concentration 40): 96.2832%
- % inhibition Apo pol 10' (DRC-1, concentration 80): 99.222%
- % inhibition Apol 90' (DRC-1, 90', concentration 2.5): -1.332%
- % inhibition Apol 90' (DRC-1, 90', concentration 5): 6.063%
- % inhibition Apol 90' (DRC-1, 90', concentration 10): 22.6686%
- % inhibition Apol 90' (DRC-1, 90', concentration 20): 56.1821%
- % inhibition Apol 90' (DRC-1, 90', concentration 40): 89.9026%
- % inhibition Apol 90' (DRC-1, 90', concentration 80): 98.7402%
- % inhibition apPOL 180' (DRC-1, 180', concentration 2.5): -3.025%
- % inhibition apPOL 180' (DRC-1, 180', concentration 5): 1.181%
- % inhibition apPOL 180' (DRC-1, 180', concentration 10): 16.2132%
- % inhibition apPOL 180' (DRC-1, 180', concentration 20): 51.6229%
- % inhibition apPOL 180' (DRC-1, 180', concentration 40): 87.2271%
- % inhibition apPOL 180' (DRC-1, 180', concentration 80): 98.5627%
- % inhibition Apol 40' (DRC-2, 40', concentration 20 (unit not given)): 56%
- % inhibition ApPOL 90' (DRC-2, 90', concentration 20 (unit not given)): 56%
- % inhibition Apo pol 5' (DRC-2, 5', concentration 2.5): 12%
- % inhibition Apo pol 5' (DRC-2, 5', concentration 5): 23%
- % inhibition Apo pol 5' (DRC-2, 5', concentration 10): 41%
- % inhibition Apo pol 5' (DRC-2, 5', concentration 20): 52%
- % inhibition Apo pol 5' (DRC-2, 5', concentration 40): 59%
- % inhibition Apo pol 5' (DRC-2, 5', concentration 80): 63%
- % inhibition Apol 40' (DRC-2, 40', concentration 2.5): -11%
- % inhibition Apol 40' (DRC-2, 40', concentration 5): 4.26%
- % inhibition Apol 40' (DRC-2, 40', concentration 10): 29%
- % inhibition Apol 40' (DRC-2, 40', concentration 20): 56%
- % inhibition Apol 40' (DRC-2, 40', concentration 40): 75%
- % inhibition Apol 40' (DRC-2, 40', concentration 80): 79%
- % inhibition ApPOL 90' (DRC-2, 90', concentration 2.5): -13%
- % inhibition ApPOL 90' (DRC-2, 90', concentration 5): 1%
- % inhibition ApPOL 90' (DRC-2, 90', concentration 10): 28%
- % inhibition ApPOL 90' (DRC-2, 90', concentration 20): 56%
- % inhibition ApPOL 90' (DRC-2, 90', concentration 40): 78%
- % inhibition ApPOL 90' (DRC-2, 90', concentration 80): 83%
- % inhibition apPOL 180' (DRC-2, 180', concentration 2.5): -3.36%
- % inhibition apPOL 180' (DRC-2, 180', concentration 5): 7.57%
- % inhibition apPOL 180' (DRC-2, 180', concentration 10): 31%
- % inhibition apPOL 180' (DRC-2, 180', concentration 20): 58%
- % inhibition apPOL 180' (DRC-2, 180', concentration 40): 80%
- % inhibition apPOL 180' (DRC-2, 180', concentration 80): 86%
- DNA Pol [2]: 94

SMILES: NC(=O)c1cc[n+](CC2=C(C(=O)[O-])N3C(=O)[C@@H](NC(=O)[C@@H](c4ccccc4)S(=O)(=O)[O-])[C@H]3SC2)cc1.[Na+] [Molecule 9, O=C([C@H](S(=O)(=O)[O-])c1ccccc1)N[C@@H]1C(=O)N2[C@@H]1SCC(=C2C(=O)[O-])C[n+]1ccc(cc1)C(=O)N.[Na+]]
- DNA Pol [1]: 104
- % inhibition Apo pol 10' (DRC-1, concentration 2.5): 39.849%
- % inhibition Apo pol 10' (DRC-1, concentration 5): 54.1804%
- % inhibition Apo pol 10' (DRC-1, concentration 10): 77.8206%
- % inhibition Apo pol 10' (DRC-1, concentration 20): 94.0018%
- % inhibition Apo pol 10' (DRC-1, concentration 40): 97.9008%
- % inhibition Apo pol 10' (DRC-1, concentration 80): 96.5672%
- % inhibition Apol 90' (DRC-1, 90', concentration 2.5): 3.442%
- % inhibition Apol 90' (DRC-1, 90', concentration 5): 17.2714%
- % inhibition Apol 90' (DRC-1, 90', concentration 10): 53.7945%
- % inhibition Apol 90' (DRC-1, 90', concentration 20): 88.3864%
- % inhibition Apol 90' (DRC-1, 90', concentration 40): 97.5%
- % inhibition Apol 90' (DRC-1, 90', concentration 80): 97.5161%
- % inhibition apPOL 180' (DRC-1, 180', concentration 2.5): -2.063%
- % inhibition apPOL 180' (DRC-1, 180', concentration 5): 5.595%
- % inhibition apPOL 180' (DRC-1, 180', concentration 10): 40.8592%
- % inhibition apPOL 180' (DRC-1, 180', concentration 20): 84.7929%
- % inhibition apPOL 180' (DRC-1, 180', concentration 40): 96.7618%
- % inhibition apPOL 180' (DRC-1, 180', concentration 80): 97.7754%
- % inhibition Apo pol 5' (DRC-2, 5', concentration 20 (unit not given)): 56%
- % inhibition Apol 40' (DRC-2, 40', concentration 40 (unit not given)): 76%
- % inhibition Apol 40' (DRC-2, 40', concentration 80 (unit not given)): 76%
- % inhibition apPOL 180' (DRC-2, 180', concentration 40 (unit not given)): 83%
- % inhibition apPOL 180' (DRC-2, 180', concentration 80 (unit not given)): 83%
- % inhibition Apo pol 5' (DRC-2, 5', concentration 2.5): 21%
- % inhibition Apo pol 5' (DRC-2, 5', concentration 5): 28%
- % inhibition Apo pol 5' (DRC-2, 5', concentration 10): 47%
- % inhibition Apo pol 5' (DRC-2, 5', concentration 20): 56%
- % inhibition Apo pol 5' (DRC-2, 5', concentration 40): 58%
- % inhibition Apo pol 5' (DRC-2, 5', concentration 80): 56%
- % inhibition Apo pol 5' (DRC-2, 5', concentration 80 (unit not given)): 56%
- % inhibition Apol 40' (DRC-2, 40', concentration 2.5): -0.192%
- % inhibition Apol 40' (DRC-2, 40', concentration 5): 15%
- % inhibition Apol 40' (DRC-2, 40', concentration 10): 49%
- % inhibition Apol 40' (DRC-2, 40', concentration 20): 71%
- % inhibition Apol 40' (DRC-2, 40', concentration 40): 76%
- % inhibition Apol 40' (DRC-2, 40', concentration 80): 76%
- % inhibition ApPOL 90' (DRC-2, 90', concentration 2.5): -4%
- % inhibition ApPOL 90' (DRC-2, 90', concentration 5): 8%
- % inhibition ApPOL 90' (DRC-2, 90', concentration 10): 46%
- % inhibition ApPOL 90' (DRC-2, 90', concentration 20): 74%
- % inhibition ApPOL 90' (DRC-2, 90', concentration 40): 81%
- % inhibition ApPOL 90' (DRC-2, 90', concentration 80): 80%
- % inhibition apPOL 180' (DRC-2, 180', concentration 2.5): 1.56%
- % inhibition apPOL 180' (DRC-2, 180', concentration 5): 9%
- % inhibition apPOL 180' (DRC-2, 180', concentration 10): 41%
- % inhibition apPOL 180' (DRC-2, 180', concentration 20): 75%
- % inhibition apPOL 180' (DRC-2, 180', concentration 40): 83%
- % inhibition apPOL 180' (DRC-2, 180', concentration 80): 83%
- DNA Pol [2]: 104

SMILES: O=C1N=C(Nc2cccc(Cl)c2Cl)S/C1=C\c1ccco1 [Molecule 3]
- pIC50: 5.30

SMILES: Cc1cccc(CC(=O)N2CCc3c(nc4cc(-c5ccccc5)[nH]n4c3=O)C2)c1 [Molecule 12]
- pIC50: 5.25

SMILES: O=c1cc(-c2ccccc2)oc2c(O)c(O)ccc12 [Molecule 84]
- pIC50: 4.49
